Series [1] in a line: Freund adjuvant test, inhibition of adjuvant oedema (FA), anti-inflammatory effect. The class given is in vivo. The following applies: for FA inhibition %: Table I, oral suspension in 0.5% methylcellulose, dose equimolar to flobufen 20 mg/kg; for FA suppression %: Table II, oral. The method, then: (§1) ^b Antiinflammatory and analgesic activity was evaluated in compariso
(§2) with flobufen in equimolar doses, while flobufen was administered in a
(§3) dose of 20 mg/kg in the evaluation of antiinflammatory activity and in a
(§4) dose of 100 mg/kg in the evaluation of analgesic activity; the substances
(§5) were administered orally as a suspension in a 0.5% solution of
(§6) methylcellulose and the oedema was measured 1 hour upon application;
^d Antiinflammatory effect in the Freundadjuvant test was assessed
according to Horakova Z., Grimova J.: Cs. Fysiol. 17, 137 (1968);
(§7) ^b for oral and intramuscular application an aqueous solution of
(§8) substance 17640 was used in said dose;
(§9) ^c the standard, i.e. 4(2,4-difluorobiphenylyl)-2-methyl-4-oxobutanic
(§10) acid was administered as a suspension in a 0.5% methylcellulose solution.

A short description of series [2]: Analgesic activity, intraperitoneal irritation with 0.7% acid. The class given is in vivo, male mice. The note with it: for Pain inhibition %: Table I, oral suspension in 0.5% methylcellulose, dose equimolar to flobufen 100 mg/kg, male mice; for Pain suppression %: Table II. The method, then:
as §1, §2, §3, §4, §5
^e Analgesic activity was evaluated in the test of intraperitoneal
irritation with 0.7% acid in male mice according to Witkin L. et al.: J.
as §7, §8, §9, §10

The subject of series [3] is male mice. The experiment in a line: Acute toxicity, mortality after a single dose (oral or intravenous). The class given is in vivo. The note with it: 500 mg/kg, 10080 min; for % mortality: Table I, single oral dose of 500 mg/kg, day 7 after application. The method, then:
(§11) ^a Acute oral toxicity of each substance was evaluated after a single
(§12) dose of 500 mg/kg in male mice. The mortality in % is for day 7 after
(§13) ^a Acute toxicity was evaluated after a single dose of substance 1764
(§14) in male mice, namely orally as an aqueous solution, and intravenously in
(§15) physiological saline solution. Mortality was followed up in groups of 10
(§16) animals for 7 days upon oral application and for 3 days upon intravenous

Series [4] in a line: Suppression of carragenine oedema (CE), anti-inflammatory effect. The class given is in vivo. The note with it: for CE inhibition %: Table I, oral suspension in 0.5% methylcellulose, dose equimolar to flobufen 20 mg/kg, 1 hour upon application; for CE suppression %: Table II. The method, then: as §1, §2, §3, §4, §5, §6
^c Suppression of the carraganine oedema was assessed according to
Winter J.: Proc. Soc. exptl. Biol. Med., 111, 544 (1962);
as §7, §8, §9, §10

Series [5] is described as follows: Acute toxicity, mortality after a single dose (oral or intravenous). The format is in vivo. The following applies: mouse, male mice; for mortality at 168 h: in vivo, po, 500 mg/kg, Table I, single oral dose of 500 mg/kg, day 7 after application. The procedure:
as §11, §12, §13, §14, §15, §16

Molecules are shown by their SMILES. Where a name gives a salt, the structure may show the parent alone.

In the case of `CC(CC(=O)c1ccc(-c2ccc(F)cc2F)cc1)C(=O)O` (stereo not drawn) [Flobufen, 4(2,4-difluorobiphenylyl)-2-methyl-4-oxobutanic acid, reference compound], the FA inhibition % in series [1] came to 65%. The FA suppression % in series [1] (dose 20, suspension in 0.5% methylcellulose) is listed as 65%. In addition, the Pain inhibition % in series [2] is listed as 79%. The compound also came in with a Pain suppression % in series [2] (oral, dose 100, suspension in 0.5% methylcellulose) of 79%. Moreover, in series [3], the “% mortality” value turned out to be 50%. For the same compound, in series [3] (Table II, oral, dose 500, aqueous solution (flobufen: suspension in 0.5% methylcellulose), 7 days), the “Acute toxicity, % mortality” value came to 50%. Moreover, in series [4], the CE inhibition % turned out to be 46%. Also, the CE suppression % in series [4] (oral, dose 20, suspension in 0.5% methylcellulose) came out at 46%.

For `CC(CC(=O)c1ccc(-c2ccc(F)cc2F)cc1)C(=O)O` (stereo not drawn) [VUFB 17629, Cyclohexylammonium Salt of 4-/2,4-Difluorobiphenylyl/-2-methyl-4-oxobutan Acid], the FA inhibition % in series [1] is 53%. In addition, in series [2], the Pain inhibition % is reported as 58%. The “% mortality” value in series [3] was found to be 0%. Also, in series [4], the CE inhibition % amounted to 47%.

As a reminder, the mortality is the share of the test organisms that died. On to `CC(CC(=O)c1ccc(-c2ccc(F)cc2F)cc1)C(=O)O` (stereo not drawn) [VUFB 17640], for which the FA suppression % in series [1] (dose 30, aqueous solution) is 58%. Also, the Pain suppression % is 77% in series [2] (oral, dose 150, aqueous solution) and 48% in series [2] (parenteral (intramuscular), dose 80, aqueous solution). In addition, the mortality at 72 h in series [5] (physiological saline, iv, 100 mg/kg, Table II, parenteral (intravenous), dose 100, physiological saline, 3 days) was 0%. For the same compound, the CE suppression % in series [4] (oral, dose 30, aqueous solution) amounted to 46%; in series [4] (parenteral (intramuscular), dose 1, aqueous solution) it was 21%; in series [4] (parenteral (intramuscular), dose 10, aqueous solution) it was 40%.

Consider `CCOC(=O)C(C)CC(=O)c1ccc(-c2ccc(F)cc2F)cc1` (stereo not drawn) [VUFB 18391], for which the FA inhibition % in series [1] came to 55%. Further, the Pain inhibition % in series [2] came to 38%. The mortality at 168 h in series [5] is 0%. Besides, the CE inhibition % in series [4] was 49%.

Consider `CCOC(=O)CNC(=O)C(C)CC(=O)c1ccc(-c2ccc(F)cc2F)cc1` (stereo not drawn) [VUFB 18392], for which the FA inhibition % in series [1] was found to be 51%. This compound came in with a Pain inhibition % in series [2] of 41%. This compound also came in with a mortality at 168 h in series [5] of 0%. The compound also registered a CE inhibition % in series [4] of 40%.

On to `CCCCNC(=O)C(C)CC(=O)c1ccc(-c2ccc(F)cc2F)cc1` (stereo not drawn) [VUFB 18398, n-Butylamide of 4-/2,4-Difluorobiphenylyl/-2-methyl-4-oxobutan Acid], for which the FA inhibition % in series [1] was determined as 44%. The compound also gave a Pain inhibition % in series [2] of 33%. Also, in series [5], the mortality at 168 h came to 0%. Besides, the CE inhibition % in series [4] is recorded as 33%.

As for `CC(CC(=O)c1ccc(-c2ccc(F)cc2F)cc1)C(=O)O` (stereo not drawn) [VUFB 18404], the FA inhibition % in series [1] was 51%. Also, in series [2], the Pain inhibition % was 35%. Besides, the “% mortality” value in series [3] is given as 30%. Besides, the CE inhibition % in series [4] was 44%.

Turning to `CC(CC(=O)c1ccc(-c2ccc(F)cc2F)cc1)C(=O)O` (stereo not drawn) [VUFB 18405, Potassium Salt of 4-/2,4-Difluorobiphenylyl/-2-methyl-4-oxobutan Acid], the FA inhibition % in series [1] is recorded as 50%. In series [2], the Pain inhibition % was found to be 47%. Also, the “% mortality” value in series [3] was determined as 20%. In series [4], this compound yielded a CE inhibition % of 39%.

The values are drawn from US5177204A, “Derivatives of 4-(2,4-difluorbiphenylyl)-2-methyl-4-oxobutanoic acid” (Vyzkumng, USTAV pro farmacii a biochemii, Statni podnik, priority 1990, dated 1993).
